Read-outs that look alike come from different tables or passages of the source.
Key:
Experiment in all cases: biochemical
Format in all cases: binding
DRB3*0101 = DRB3*0101 (Homo sapiens, UniProt P01903+P79483)
DRB1*0401 = DRB1*0401 (Homo sapiens, UniProt P01903+P01911, A100K/A169T/F76Y/I96L/K127E/L162R/M171V/N62H/P40V/Q125Y/R42H/S133A/S149N/S66Y/V115G/V209L/W38E)
DRB1*0301 = DRB1*0301 (Homo sapiens, UniProt P01903+P01911, A100K/A102G/A103R/A169T/F55Y/I96L/K41T/L162R/M171V/P40S/Q125H/Q178H/Q39Y/R42S/S66N/T106N/T262R/W38E/Y61H)
DRB1*1302 = DRB1*1302 (Homo sapiens, UniProt P01903+P01911, A100E/A169T/K41T/L162R/M171V/P40S/Q125H/Q178H/Q39Y/Q99D/R42S/S66N/T262R/V115G/W38E/Y61H)
DRB4*0101 = DRB4*0101 (Homo sapiens, UniProt P01903+P13762, G164S)
DRB1*0404 = DRB1*0404 (Homo sapiens, UniProt P01903+P01911, A100R/A169T/F76Y/I96L/K127E/L162R/M171V/N62H/P40V/Q125Y/R42H/S133A/S149N/S66Y/V209L/W38E)
DRB1*0405 = DRB1*0405 (Homo sapiens, UniProt P01903+P01911, A100R/A169T/D86S/F76Y/I96L/K127E/L162R/M171V/N62H/P40V/Q125Y/R42H/S133A/S149N/S66Y/V115G/V209L/W38E)
DRB1*1101 = DRB1*1101 (Homo sapiens, UniProt P01903+P01911, A100R/A169T/A87E/I96F/K41T/L162R/M171V/P40S/Q125H/Q178H/Q39Y/Q99D/R42S/S66Y/T262R/V115G/W38E)
DRB1*0802 = DRB1*0802 (Homo sapiens, UniProt P01903+P01911, A100R/A103L/A169T/F76Y/H45Y/I96F/K41T/L162R/M171V/P40S/Q125H/Q178H/Q39Y/Q99D/R218S/R42G/S66Y/V115G/W38E)
DRB1*1501 = DRB1*1501 (Homo sapiens, UniProt P01903+P01911)
DRB1*0901 = DRB1*0901 (Homo sapiens, UniProt P01903+P01911, A100R/A103E/D57H/D86V/F55Y/F60I/F76Y/I96F/K127E/L162R/M171V/P40D/Q125H/Q99R/R33Q/R42F/S133A/S66N/T210M/V115G/W38K/Y107V/Y59G/Y89S)
DRB5*0101 = DRB5*0101 (Homo sapiens, UniProt P01903+Q30154)
DRB1*0701 = DRB1*0701 (Homo sapiens, UniProt P01903+P01911, A100R/A102G/A103Q/D57E/D86V/E43K/F76Y/K127E/L162R/M171V/P40G/Q125H/Q99D/R33Q/R42Y/R54Q/S133A/S66F/T210M/V115G/Y107V/Y59L/Y89S)
DRB1*0101 = DRB1*0101 (Homo sapiens, UniProt P01903+P01911, A100R/D57E/F55L/F60I/F76Y/I96L/L162R/M171V/P40L/Q125E/R42F/V115G/Y59C)
[1] = competitive inhibition of radiolabeled standard peptide, '-' distinct from ND, read-out: Binding Affinity (nM) DRB1*1302
[2] = competitive inhibition of radiolabeled standard peptide, '-' distinct from ND, read-out: Binding Affinity (nM) DRB1*0901

DRB1*1302, sequence (P01903 26-254 limits assumed, other chains not shown): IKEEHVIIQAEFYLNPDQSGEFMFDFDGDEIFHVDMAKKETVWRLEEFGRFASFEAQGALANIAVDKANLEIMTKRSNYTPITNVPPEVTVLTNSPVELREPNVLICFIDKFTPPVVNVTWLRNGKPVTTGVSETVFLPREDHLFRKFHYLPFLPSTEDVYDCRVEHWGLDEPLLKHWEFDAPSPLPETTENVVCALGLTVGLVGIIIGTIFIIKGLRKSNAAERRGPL
DRB1*1101, sequence (P01903 26-254, other chains not shown): as the sequence (P01903 26-254 limits assumed, other chains not shown) above
DRB1*0301, sequence (P01903 26-254, other chains not shown): as the sequence (P01903 26-254 limits assumed, other chains not shown) above

Row | SMILES | IC50 (DRB3*0101) [nM] | IC50 (DRB1*0401) [nM] | IC50 (DRB1*0301) [nM] | IC50 (DRB1*1302; [1]) [nM] | IC50 (DRB4*0101) [nM] | IC50 (DRB1*0404) [nM] | IC50 (DRB1*0405) [nM] | IC50 (DRB1*1101) [nM] | IC50 (DRB1*0802) [nM] | IC50 (DRB1*1501) [nM] | IC50 (DRB1*0901; [2]) [nM] | IC50 (DRB5*0101) [nM] | IC50 (DRB1*0701) [nM] | IC50 (DRB1*0101) [nM] | IC50 (DRB1*1302) [nM] | IC50 (DRB1*0901) [nM]
1 | CC[C@H](C)[C@H](NC(=O)[C@H](CCCCN)NC(=O)CNC(=O)[C@H](CCC(=O)O)NC(=O)[C@@H](NC(=O)[C@H](CS)NC(=O)[C@H](CC(C)C)NC(=O)[C@H](CCCCN)NC(=O)[C@H](CCCNC(=N)N)NC(=O)[C@H](CC(C)C)NC(=O)[C@@H](NC(=O)[C@H](C)NC(=O)[C@H](CC(C)C)NC(=O)[C@H](CCC(N)=O)NC(=O)[C@@H](N)[C@@H](C)O)[C@@H](C)O)[C@@H](C)CC)C(=O)O [Envelope 51-65] | 8300 | 2140 | 2510 | 1080 | 154 | 10100 | 6340 | 40 | 130 | 982 | 2340 | 1850 | – | – | – | –
2 | CC[C@H](C)[C@H](NC(=O)[C@H](CC(=O)O)NC(=O)CNC(=O)[C@@H](NC(=O)[C@@H](NC(=O)[C@@H](NC(=O)[C@@H](NC(=O)[C@H](CC(C)C)NC(=O)[C@@H](N)CCCCN)[C@@H](C)O)C(C)C)C(C)C)C(C)C)C(=O)N[C@H](C(=O)NCC(=O)N[C@H](C(=O)N[C@@H](CC(C)C)C(=O)N[C@@H](CCC(=O)O)C(=O)N[C@@H](CCC(N)=O)C(=O)O)C(C)C)[C@@H](C)CC [NS1 85-99] | 1680 | 88 | 533 | 483 | 220 | 2660 | 1400 | 807 | – | 21 | 42 | 77 | 70 | – | – | –
3 | CSCC[C@H](NC(=O)[C@@H](NC(=O)[C@H](CCC(N)=O)NC(=O)[C@H](Cc1ccccc1)NC(=O)[C@H](CC(N)=O)NC(=O)[C@H](CCCCN)NC(=O)[C@@H]1CCCN1C(=O)[C@@H](N)CC(N)=O)[C@@H](C)O)C(=O)N1CCC[C@H]1C(=O)NCC(=O)N[C@H](C(=O)N[C@@H](Cc1ccccc1)C(=O)N[C@@H](CCC(N)=O)C(=O)N[C@H](C(=O)N[C@H](C(=O)O)[C@@H](C)O)[C@@H](C)O)[C@@H](C)O [NS3 105-119] | 2530 | 5.4 | 11600 | – | 843 | 39 | 96 | 86 | 175 | – | – | 177 | 2790 | 49 | 2390 | 407
4 | CC[C@H](C)[C@H](NC(=O)[C@H](CC(=O)O)NC(=O)[C@@H](N)CC(C)C)C(=O)N[C@@H](CCC(=O)O)C(=O)N[C@@H](CC(C)C)C(=O)N[C@@H](CCC(N)=O)C(=O)N[C@@H](CCCCN)C(=O)N[C@H](C(=O)N[C@@H](CCC(=O)O)C(=O)N[C@@H](C)C(=O)N[C@H](C(=O)N[C@@H](CCC(N)=O)C(=O)N[C@@H](CC(C)C)C(=O)N[C@@H](C)C(=O)N[C@H](C(=O)O)[C@@H](C)O)[C@@H](C)O)[C@@H](C)O [Envelope 41-55] | 3330 | 349 | – | 27 | 6.5 | – | 583 | 3260 | 5.1 | – | 132 | 684 | 3.1 | 2.3 | – | –
5 | CC[C@H](C)[C@H](NC(=O)[C@H](CC(C)C)NC(=O)[C@H](CC(N)=O)NC(=O)[C@H](Cc1ccc(O)cc1)NC(=O)[C@H](CC(N)=O)NC(=O)[C@@H]1CCCN1)C(=O)N[C@H](C(=O)N[C@@H](CCSC)C(=O)N[C@@H](CC(=O)O)C(=O)N[C@@H](CCC(=O)O)C(=O)N[C@@H](C)C(=O)N[C@@H](Cc1c[nH]cn1)C(=O)N[C@@H](Cc1ccccc1)C(=O)N[C@H](C(=O)N[C@@H](CC(=O)O)C(=O)O)[C@@H](C)O)[C@@H](C)CC [NS3 277-291] | 4.4 | – | 37 | 68 | 208 | 1530 | 402 | 4610 | 396 | 1320 | 2600 | 7130 | 2700 | – | – | –
